# Laboratory results from ChEMBL document CHEMBL4831501, “Discovery of a potent and selective inhibitor of histone lysine demethylase KDM4D” (Eur J Med Chem, 2021).
# Legend:
# [1] = molecular target: T1, Lysine-specific demethylase 4D (Homo sapiens) (UniProt Q6B0I6); test: Inhibition of human KDM4D expressed in Escherichia coli BL21 (DE3) at 1 uM using biotinylated H3-derived peptide and 2-OG as substrate preincubated for 15 mins followed by substrate addition and measured after 1 hr by AlphaLISA assay; details: time 75.0 min
# T1 sequence (whole entry): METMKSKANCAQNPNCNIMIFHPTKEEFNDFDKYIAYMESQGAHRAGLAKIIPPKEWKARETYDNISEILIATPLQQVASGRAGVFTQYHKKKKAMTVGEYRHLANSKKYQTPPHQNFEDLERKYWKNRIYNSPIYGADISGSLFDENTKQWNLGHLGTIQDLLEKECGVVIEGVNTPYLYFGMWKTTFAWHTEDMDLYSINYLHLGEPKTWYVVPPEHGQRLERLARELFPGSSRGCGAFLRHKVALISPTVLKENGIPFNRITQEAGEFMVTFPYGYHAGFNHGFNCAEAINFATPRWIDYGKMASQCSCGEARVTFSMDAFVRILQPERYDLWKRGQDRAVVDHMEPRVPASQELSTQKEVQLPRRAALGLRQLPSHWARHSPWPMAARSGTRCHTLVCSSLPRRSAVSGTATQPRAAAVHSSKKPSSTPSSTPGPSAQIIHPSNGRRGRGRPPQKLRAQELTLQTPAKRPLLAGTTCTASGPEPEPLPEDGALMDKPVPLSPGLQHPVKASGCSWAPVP
# [2] = molecular target: T2, Lysine-specific demethylase 4D (Homo sapiens, UniProt Q6B0I6); test: Inhibition of human KDM4D expressed in Escherichia coli BL21 (DE3) using biotinylated H3-derived peptide and 2-OG as substrate preincubated for 15 mins followed by substrate addition and measured after 1 hr by AlphaLISA assay
# T2 sequence (Q6B0I6 whole entry): T1 sequence (whole entry)
Structure (SMILES),inhibition [1] [%],IC50 [2] [nM]
CC(C)(C)OC(=O)N[C@@H]1CCN(C(c2ccc(-c3cccnc3)cc2)c2cc3c(cc2O)OCO3)C1 (some centres undefined),99.2,220
COc1cccc(C(=O)N[C@@H]2CCN(C(c3ccncc3)c3cc4c(cc3O)OCO4)C2)c1 (some centres undefined),99.4,546
CC(=O)N[C@@H]1CCN(C(c2ccncc2)c2cc3c(cc2O)OCO3)C1 (some centres undefined),77.5,519
O=C(N[C@@H]1CCN(C(c2ccncc2)c2cc3c(cc2O)OCO3)C1)c1ccccc1 (some centres undefined),99.9,536
CC(C)(C)OC(=O)N[C@@H]1CCN(C(c2cccc(C#N)c2)c2cc3c(cc2O)OCO3)C1 (some centres undefined),96.5,482
O=S(=O)(N[C@@H]1CCN(C(c2ccncc2)c2cc3c(cc2O)OCO3)C1)C1CC1 (some centres undefined),99.3,577
COc1cc(O)c(C(c2ccncc2)N2CC[C@@H](NC(=O)OC(C)(C)C)C2)cc1OC (some centres undefined),98.6,632
CC(C)(C)NC(=O)N[C@@H]1CCN(C(c2ccncc2)c2cc3c(cc2O)OCO3)C1 (some centres undefined),97.2,188
CC(C)(C)OC(=O)N[C@@H]1CCN(C(c2cc3c(cc2O)OCO3)c2ccc(F)cc2Cl)C1 (some centres undefined),98.5,117
CC(C)(C)OC(=O)N[C@@H]1CCN(C(c2ccncc2)c2ccccc2O)C1 (some centres undefined),1.9,
O=C(N[C@H]1CCN(C(c2ccncc2)c2cc3c(cc2O)OCO3)C1)C1CC1 (some centres undefined),96.6,892
CCOc1ccc(C(=O)N[C@@H]2CCN(C(c3ccncc3)c3cc4c(cc3O)OCO4)C2)cc1 (some centres undefined),97.3,170
O=C(NC1CC1)[C@@H]1CCN(C(c2ccncc2)c2cc3c(cc2O)OCO3)C1 (some centres undefined),98.3,546
CC(C)(C)NC(=S)N[C@@H]1CCN(C(c2ccncc2)c2cc3c(cc2O)OCO3)C1 (some centres undefined),96.4,171
CC(C)(C)OC(=O)N[C@@H]1CCN(C(c2ccc(-n3cccc3)cc2)c2cc3c(cc2O)OCO3)C1 (some centres undefined),95.6,444
CC(C)(C)OC(=O)N[C@@H]1CCN(Cc2cc3c(cc2O)OCO3)C1,-4.8,
CC(C)(C)OC(=O)N[C@@H]1CCN(C(c2ccc(-n3cncn3)cc2)c2cc3c(cc2O)OCO3)C1 (some centres undefined),99.7,56
O=C(N[C@@H]1CCN(C(c2ccncc2)c2cc3c(cc2O)OCO3)C1)C1CC1 (some centres undefined),99.8,155
CC(C)(C)OC(=O)N[C@@H]1CCN(C(c2ccncc2)c2cc3c(cc2O)OCCO3)C1 (some centres undefined),2.78,
O=C(N[C@@H]1CCN(C(c2ccncc2)c2cc3c(cc2O)OCO3)C1)c1cccc(F)c1 (some centres undefined),99.7,351

Structure (SMILES),inhibition [1] [%],IC50 [2] [nM]
CC(C)(C)OC(=O)N[C@@H]1CCN(C(c2ccc(-c3ccccc3)cc2)c2cc3c(cc2O)OCO3)C1 (some centres undefined),10.6,
O=C(O[C@@H]1CCN(C(c2ccncc2)c2cc3c(cc2O)OCO3)C1)C1CC1 (some centres undefined),98.2,586
CC(C)(C)OC(=O)N[C@@H]1CCN(C(c2cccc(-c3cccnc3)c2)c2cc3c(cc2O)OCO3)C1 (some centres undefined),96.2,184
COc1cc(O)c(C(c2ccncc2)N2CC[C@@H](NC(=O)OC(C)(C)C)C2)cc1F (some centres undefined),12.9,
CC(C)(C)OC(=O)N[C@@H]1CCN(C(c2ccc(-c3ccncc3)nc2)c2cc3c(cc2O)OCO3)C1 (some centres undefined),97.1,165
CC(C)(C)OC(=O)N[C@@H]1CCN(C(c2cncnc2)c2cc3c(cc2O)OCO3)C1 (some centres undefined),64.4,
O=C(N[C@@H]1CCN(C(c2ccncc2)c2cc3c(cc2O)OCO3)C1)c1ccccc1Cl (some centres undefined),94.2,187
CC(C)(C)OC(=O)N[C@@H]1CCN(C(c2cccc(-c3ccccn3)c2)c2cc3c(cc2O)OCO3)C1 (some centres undefined),91.4,285
CC(C)(C)OC(=O)N[C@@H]1CCN(C(c2cc3c(cc2O)OCO3)c2ccc(F)cc2F)C1 (some centres undefined),97.3,173
CC(C)(C)OC(=O)N[C@@H]1CCN(C(c2ccncc2)c2cc3c(cc2O)CCC3)C1 (some centres undefined),-6.01,
Cc1nccn1-c1ccc(C(c2cc3c(cc2O)OCO3)N2CC[C@@H](NC(=O)OC(C)(C)C)C2)cc1 (some centres undefined),99.8,87
COc1cc(C#N)ccc1C(c1cc2c(cc1O)OCO2)N1CC[C@@H](NC(=O)OC(C)(C)C)C1 (some centres undefined),98.1,368
CC(C)(C)OC(=O)N[C@@H]1CCN(C(c2ccncc2)c2ccc(C(C)(C)C)cc2O)C1 (some centres undefined),-8.59,
COc1ccc(OC)c(C(c2ccncc2)N2CC[C@@H](NC(=O)OC(C)(C)C)C2)c1O (some centres undefined),97.5,212
CC(C)(C)C(=O)N[C@@H]1CCN(C(c2ccncc2)c2cc3c(cc2O)OCO3)C1 (some centres undefined),98.7,664
CC(C)(C)OC(=O)N[C@@H]1CCN(C(c2ccc(C#N)cc2)c2cc3c(cc2O)OCO3)C1 (some centres undefined),99.4,141
O=C(NC[C@@H]1CCN(C(c2ccncc2)c2cc3c(cc2O)OCO3)C1)C1CC1 (some centres undefined),93.6,193
COC(=O)c1ccc(C(c2cc3c(cc2O)OCO3)N2CC[C@@H](NC(=O)OC(C)(C)C)C2)cc1 (some centres undefined),99.4,445
CCOc1ccccc1C(=O)N[C@@H]1CCN(C(c2ccncc2)c2cc3c(cc2O)OCO3)C1 (some centres undefined),94.4,342
CC(C)(C)OC(=O)N[C@@H]1CCN(C(c2cc3c(cc2O)OCO3)c2ccc(C#N)cc2F)C1 (some centres undefined),99.4,330

Structure (SMILES),inhibition [1] [%],IC50 [2] [nM]
CC(C)(C)OC(=O)N[C@@H]1CCN(C(c2ccncc2)c2cc3c(cc2O)OCO3)C1 (some centres undefined),97.2,135
CC(C)(C)OC(=O)N[C@@H]1CCN(C(c2cccc(-n3ccnc3)c2)c2cc3c(cc2O)OCO3)C1 (some centres undefined),99.7,109
CC(C)(C)OC(=O)N[C@@H]1CCN(C(c2ccc(F)cc2)c2cc3c(cc2O)OCO3)C1 (some centres undefined),98.2,192
Cn1nccc1C(c1cc2c(cc1O)OCO2)N1CC[C@@H](NC(=O)OC(C)(C)C)C1 (some centres undefined),94.6,509
CN(C)[C@@H]1CCN(C(c2ccncc2)c2cc3c(cc2O)OCO3)C1 (some centres undefined),95,200
N[C@@H]1CCN(C(c2ccncc2)c2cc3c(cc2O)OCO3)C1 (some centres undefined),33.6,1750
CC(C)(C)OC(=O)N[C@@H]1CCN(C(c2ccncc2)c2cc3c(cc2O)OC(F)(F)O3)C1 (some centres undefined),0.88,
O=C(N[C@@H]1CCN(C(c2ccncc2)c2cc3c(cc2O)OCO3)C1)C1CCCCC1 (some centres undefined),99.2,528
CC(C)(C)OC(=O)N[C@@H]1CCN(C(c2cc3c(cc2O)OCO3)C2CCCCC2)C1 (some centres undefined),-7.31,
COc1ccc(O)c(C(c2ccncc2)N2CC[C@@H](NC(=O)OC(C)(C)C)C2)c1 (some centres undefined),-3.27,
CC(C)(C)OC(=O)N[C@@H]1CCN(C(c2ccc(C#N)cn2)c2cc3c(cc2O)OCO3)C1 (some centres undefined),100,45
CC(C)(C)OC(=O)N[C@@H]1CCN(C(c2ccncc2)c2cc3c(cc2O)OC(C)(C)O3)C1 (some centres undefined),76,609
CC(C)(C)OC(=O)N[C@@H]1CCN(C(c2cccc(-c3ccncc3)c2)c2cc3c(cc2O)OCO3)C1 (some centres undefined),95.6,223
CN(C(=O)OC(C)(C)C)[C@@H]1CCN(C(c2ccncc2)c2cc3c(cc2O)OCO3)C1 (some centres undefined),87.6,642
CC(C)(C)OC(=O)N[C@@H]1CCN(C(c2ccc(C#N)c(F)c2)c2cc3c(cc2O)OCO3)C1 (some centres undefined),98.7,382
COc1ccccc1C(=O)N[C@@H]1CCN(C(c2ccncc2)c2cc3c(cc2O)OCO3)C1 (some centres undefined),99.1,399
CC(C)(C)OC(=O)N[C@@H]1CCN(C(c2ccc(-c3ccncc3)cn2)c2cc3c(cc2O)OCO3)C1 (some centres undefined),96.6,126
COc1ccc(C(c2ccncc2)N2CC[C@@H](NC(=O)OC(C)(C)C)C2)c(O)c1 (some centres undefined),44.3,
